In one data set the test system is WISH. Briefly: Cytotoxicity against human WISH cells at up to 50 uM incubated for 48 hrs by MTT assay. Type of data set: toxicity, cell-based. (Tetrazolium assays rely on reduction of a dye to a coloured formazan, in cell work by metabolically active cells.)
Another data set has as its system HepG2. Nature of the data set: cells. The conditions noted are these: Homo sapiens, HepG2, 48 h.
In another data set the test system is HeLa. Briefly: cells. The conditions noted are these: Homo sapiens, 48 h.
A further data set concerns HEp-2. Briefly: cells. The conditions noted are these: Homo sapiens, HEp-2, 48 h.
The subject of a further data set is HCT-116. Briefly: cells. Particulars: Homo sapiens, HCT-116, 48 h.
For another data set, the system named is WI-38. Nature of the data set: Cytotoxicity against human WI-38 cells up to 50 uM incubated for 48 hrs by MTT assay. Type of data set: toxicity, cell-based. Particulars: wi-38, 48 h.
A further data set deals with MCF7. Nature of the data set: cells. Particulars: Homo sapiens, MCF7, 48 h.
The nature of data set [1]: Cytotoxicity against human WISH cells incubated for 48 hrs by MTT assay. Type of data set: toxicity, cell-based.
A short description of data set [2]: Cytotoxicity against human WI-38 cells incubated for 48 hrs by MTT assay. Type of data set: toxicity, cell-based.

pIC50: −log10 of the molar value. Bounds are passed on as bounds.

Description for HCT-116: Antitumor activity against human HCT-116 cells assessed as inhibition of cell viability incubated for 48 hrs by MTT assay
Description for HEp-2: Antitumor activity against human HEp-2 cells assessed as inhibition of cell viability incubated for 48 hrs by MTT assay
Description for HeLa: Antitumor activity against human HeLa cells assessed as inhibition of cell viability incubated for 48 hrs by MTT assay
Description for HepG2: Antitumor activity against human HepG2 cells assessed as inhibition of cell viability incubated for 48 hrs by MTT assay
Description for MCF7: Antitumor activity against human MCF7 cells assessed as inhibition of cell viability incubated for 48 hrs by MTT assay

Broadly, the pIC50 is the IC50 on a negative log10 scale, so that one unit is a factor of ten. Read a low pIC50 as a large IC50. As usually defined, the IC50 is the point on the concentration scale where inhibition reaches its midpoint. Higher therefore signals lower potency. On to `N#Cc1sc(Nc2ccccc2)nc1NC(=O)CNNCc1ccccc1`, for which the Activity result in the data set on WISH and in the data set on WI-38 was “Non-toxic” in each case. The pIC50 in the data set with HepG2 is 4.55; in the data set on HeLa it was 4.67; in the data set with HEp-2, 4.17; with HCT-116, 4.38; with MCF7, 5.04. Besides, the values for the half-maximal inhibitory concentration (IC50) at 48 h in data set [1] and in [2] were 47.4 µM and 75.6 µM, respectively.

With `CC(=O)N1CCN(CC(=O)Nc2nc(Nc3ccccc3)sc2C#N)CC1`, the pIC50 was 4.11 in the data set on HepG2; 4.13 in the data set with HeLa; 4.05 in the data set on HEp-2; 4.19 in the data set on HCT-116; 4.21 in the data set on MCF7.

`N#Cc1sc(Nc2ccccc2)nc1NC(=O)CN1CCN(c2ccccc2)CC1`: the pIC50 was 4.37 with HepG2; 4.41 with HeLa; 4.13 in the data set with HEp-2; 4.29 in the data set on HCT-116; 4.72 in the data set on MCF7.

On to `N#Cc1sc(Nc2ccccc2)nc1NC(=O)CNNC(=O)c1ccc(Cl)cc1`, for which the negative-log IC50 (pIC50) in the data set with HepG2 is 4.05; with HeLa it was 4.06; in the data set with HEp-2, less than 4.00; in the data set with HCT-116 it was 4.04; in the data set with MCF7, 4.19.

As for `N#Cc1sc(Nc2ccccc2)nc1NC(=O)CN1CCOCC1`, the pIC50 in the data set with HepG2 is 4.41; in the data set with HeLa, 4.44; in the data set with HEp-2, 4.34; in the data set on HCT-116, 4.51; with MCF7, 4.48.

Regarding `N#Cc1sc(Nc2ccccc2)nc1Nc1cnc(N)o1`, the Activity entry in the data set with WISH and with WI-38 was “Non-toxic” in each case. Besides, the pIC50 with HepG2 was 4.70; in the data set with HeLa it was 4.79; in the data set on HEp-2, 4.40; in the data set on HCT-116, 4.59; in the data set on MCF7, 4.83. The IC50 at 48 h in data set [1] was found to be 24 µM; in data set [2], 27.5 µM.

Take `CCN(CC)CCNC(=O)c1c(C)[nH]c(/C=C2\C(=O)Nc3ccc(F)cc32)c1C` [SUNITINIB]: the pIC50 in the data set with HepG2 is 4.91; with HeLa it was 5.13; with HEp-2, 5.12; in the data set with HCT-116, 5.07; in the data set on MCF7 it was 5.28.

With `N#Cc1sc(Nc2ccccc2)nc1NC(=O)CN1CCN(Cc2ccccc2)CC1`, the pIC50 with HepG2 is 4.21; in the data set with HeLa it was 4.27; in the data set on HEp-2, 4.08; in the data set on HCT-116, 4.25; in the data set on MCF7 it was 4.34.

On to `N#Cc1sc(Nc2ccccc2)nc1NC(=O)CNNC(=O)c1ccc([N+](=O)[O-])cc1`, for which the pIC50 in the data set with HepG2 is 4.24; in the data set with HeLa, 4.30; in the data set on HEp-2, 4.09; with HCT-116 it was 4.26; with MCF7, 4.36.

Consider `N#Cc1sc(Nc2ccccc2)nc1NC(=O)CNNCC(=O)c1ccc(Br)cc1`, for which the pIC50 in the data set with HepG2 was 4.34; in the data set with HeLa it was 4.36; in the data set with HEp-2, 4.31; with HCT-116, 4.46; in the data set on MCF7 it was 4.45.

In the case of `COc1cccc2c1C(=O)c1c(O)c3c(c(O)c1C2=O)C[C@@](O)(C(=O)CO)C[C@@H]3O[C@H]1C[C@H](N)[C@H](O)[C@H](C)O1` [DOXORUBICIN], the Activity result with WISH and in the data set on WI-38 was “Non-toxic” in each case. In data set [1], half-maximal inhibition (IC50 at 48 h) was put at 3.34 µM.

On to `N#Cc1sc(Nc2ccccc2)nc1NC(=O)CNNCC(=O)c1cc2ccccc2oc1=O`, for which the pIC50 in the data set with HepG2 is 4.31; in the data set on HeLa it was 4.34; in the data set with HEp-2, 4.17; in the data set on HCT-116, 4.43; in the data set on MCF7 it was 4.47.

Regarding `CN1CCN(CC(=O)Nc2nc(Nc3ccccc3)sc2C#N)CC1`, the pIC50 with HepG2 is 4.14; in the data set on HeLa it was 4.17; with HEp-2, 4.02; in the data set on HCT-116, 4.15; in the data set with MCF7 it was 4.28.

In the case of `N#Cc1sc(Nc2ccccc2)nc1N1CSCC1=O`, the pIC50 was 4.04 with HepG2; 4.03 with HeLa; less than 4.00 with HEp-2; 4.06 with HCT-116; 4.14 with MCF7.

`N#Cc1sc(Nc2ccccc2)nc1NC(=O)CN1CCCCC1`: the Activity entry in the data set with WISH and in the data set on WI-38 was “Non-toxic” throughout. Moreover, the pIC50 with HepG2 was 4.52; in the data set on HeLa, 4.64; in the data set on HEp-2, 4.54; in the data set with HCT-116 it was 4.85; in the data set with MCF7, 4.78. Further, the IC50 at 48 h in [1] was determined as 21.2 µM; in [2], 23.7 µM.

For `N#Cc1sc(Nc2ccccc2)nc1Nc1cnc(N)s1`, the Activity entry in the data set on WISH and in the data set with WI-38 was “Non-toxic” throughout. Also, the pIC50 in the data set with HepG2 was 4.73; with HeLa, 4.85; in the data set on HEp-2, 4.45; in the data set on HCT-116 it was 4.71; in the data set with MCF7, 5.01. Further, the IC50 at 48 h was 82.7 µM in data set [1] and greater than 100 µM in data set [2].

With `N#Cc1sc(Nc2ccccc2)nc1NC(=O)CN1CCN(c2cccc(Cl)c2)CC1`, the pIC50 was 4.12 with HepG2; 4.14 with HeLa; 4.06 in the data set on HEp-2; 4.22 with HCT-116; 4.23 in the data set with MCF7.

`Cc1ccc(C(=O)CNNCC(=O)Nc2nc(Nc3ccccc3)sc2C#N)cc1`: the pIC50 with HepG2 was 4.02; in the data set with HeLa, less than 4.00; with HEp-2, less than 4.00; with HCT-116 it was 4.09; in the data set with MCF7 it was 4.07.

With `N#Cc1sc(Nc2ccccc2)nc1NC(=O)CNNC(=O)c1ccccc1`, the pIC50 with HepG2 is 4.13; in the data set with HeLa, 4.16; in the data set on HEp-2, 4.04; in the data set on HCT-116 it was 4.16; in the data set with MCF7 it was 4.30.

With `N#Cc1sc(Nc2ccccc2)nc1NC(=O)CNNCC(=O)c1ccccc1`, the pIC50 is 4.28 in the data set on HepG2; 4.33 in the data set with HeLa; 4.19 in the data set with HEp-2; 4.44 in the data set on HCT-116; 4.41 with MCF7.

As to `N#Cc1sc(Nc2ccccc2)nc1N1C(=N)SCC1=O`, the pIC50 with HepG2 is 4.45; in the data set with HeLa it was 4.50; in the data set with HEp-2, 4.16; in the data set with HCT-116, 4.36; in the data set on MCF7, 4.65.

For the molecule `N#Cc1sc(Nc2ccccc2)nc1NC(=O)CNNCc1ccc([N+](=O)[O-])cc1`, the pIC50 is 4.45 in the data set with HepG2; 4.48 with HeLa; 4.36 in the data set on HEp-2; 4.53 with HCT-116; 4.58 in the data set on MCF7.
